For experiment [1], the target named is T1, p73 (Homo sapiens, UniProt O15350).
T1 construct: expressed in transfected cells; host or cells: COS7
T1 sequence (O15350 1-636): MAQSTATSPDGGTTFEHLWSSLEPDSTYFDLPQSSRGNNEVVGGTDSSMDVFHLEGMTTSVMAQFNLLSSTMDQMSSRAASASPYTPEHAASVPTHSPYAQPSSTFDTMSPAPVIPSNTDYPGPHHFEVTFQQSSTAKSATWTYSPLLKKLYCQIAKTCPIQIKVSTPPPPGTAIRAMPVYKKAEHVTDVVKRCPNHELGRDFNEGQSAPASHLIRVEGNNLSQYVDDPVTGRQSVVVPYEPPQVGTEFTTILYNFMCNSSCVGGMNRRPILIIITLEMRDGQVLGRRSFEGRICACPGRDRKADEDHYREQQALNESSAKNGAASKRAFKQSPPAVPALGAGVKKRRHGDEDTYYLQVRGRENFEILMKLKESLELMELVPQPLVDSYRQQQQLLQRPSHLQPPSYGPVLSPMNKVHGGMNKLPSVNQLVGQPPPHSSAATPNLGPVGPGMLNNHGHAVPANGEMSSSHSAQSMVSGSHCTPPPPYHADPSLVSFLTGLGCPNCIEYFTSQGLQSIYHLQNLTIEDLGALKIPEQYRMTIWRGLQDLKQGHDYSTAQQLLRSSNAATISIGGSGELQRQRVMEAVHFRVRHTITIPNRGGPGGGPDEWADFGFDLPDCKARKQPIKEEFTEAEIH
As to the kind of experiment: p73 protein level (stabilization) by immunoblot in cotransfected COS7 cells. The class given is cell-based. The conditions noted are these: COS7 cotransfection (FIG. 14, 15, 29). As for the experimental part:
(§1) Cells were transiently transfected with a total of 2 μg of expression plasmids. After 48 hours of the transfection, the cells were washed with ice-cold PBS and suspended in lysis buffer (pH 8.0; which contained 25 mM Tris-Cl, 137 mM sodium chloride, 1% Triton X-100, 1 mM phenylmethylsulfonyl fluoride (PMSF), and protease inhibitor mix (Roche Molecular Biochemicals)), followed by brief sonication. After centrifugation at 15000 rpm for 10 minutes, the supernatant was collected and assayed for protein concentrations by the Bradford assay (Bio-Rad). Equal amounts of lysates (protein amount: 50 μg) from the whole cells were denatured by boiling in Laemmli SDS-sample buffer, then separated on 10% SDS-polyacrylamide gel (SDS-PAGE), and transferred at room temperature for 1 hour to polyvinylidene difluoride (PVDF) membranes (Immobilon-P; Millipore) in Tris-glycine buffer containing 10% methanol. The membranes were blocked at room temperature for 1 hour with Tris-buffered saline (TBS-T) containing 5% skim milk and 0.1% Tween 20.
As previously reported, some protein kinases (e.g., c-Abl and PKCδ) that interact with p73 can stabilize p73. To confirm whether IKK-α influenced the stabilization of p73, COS7 cells were transfected with a constant amount of HA-p73α expression plasmid together with or without varying amounts of IKK-α expression plasmids and examined for HA-p73α protein levels. […] Next, whether IKK-β influenced the stabilization of p73 and p53 was investigated by transient transfection.
On the technique in general: Immunoblotting shows a protein as a band on a membrane.

A further experiment deals with p53. As to the kind of experiment: p53 protein level (stabilization) by immunoblot in cotransfected COS7 cells. The class given is cell-based. Particulars: COS7 cotransfection (FIG. 14, 15). As for the experimental part: as §1
As previously reported, some protein kinases (e.g., c-Abl and PKCδ) that interact with p73 can stabilize p73. To confirm whether IKK-α influenced the stabilization of p73, COS7 cells were transfected with a constant amount of HA-p73α expression plasmid together with or without varying amounts of IKK-α expression plasmids and examined for HA-p73α protein levels. […]

The target of another experiment is T2, HA-p73α (Homo sapiens, UniProt O15350).
T2 construct: expressed in transfected cells; host or cells: COS7
T2 sequence (O15350 1-636): T1 sequence (O15350 1-636)
As to the kind of experiment: Ubiquitination assay in COS7 cells. The class given is cell-based. Particulars: COS7, HA-p73α and HA-ubiquitin, MG-132 (FIG. 18, 19). On the procedure: COS7 cells were transiently transfected with a constant amount of expression plasmids encoding HA-p73α and HA-Ub in the presence or absence of varying amounts of IKK-α expression plasmids. After […] from the transfection, the cells were exposed for 6 hours to a proteasome inhibitor MG-132 (final concentration: 20 μM), and lysates from the whole cells were first subjected to immunoprecipitation with an anti-p73 monoclonal antibody and then to immunoblot using an anti-HA monoclonal antibody (12CA5; Roche Molecular Biochemicals) to analyze ubiquitination levels.
As described by Lee, C.-W. et al., Oncogene 18: 4171-4181 (1999), the steady-state level of p73 was regulated at least partially by the proteolytic process through the ubiquitin-proteasome pathway. Whether IKK-α inhibited the ubiquitination of p73 was investigated. COS7 cells were transfected with expression plasmids for HA-p73α and HA-ubiquitin together with or without varying amounts of IKK-α or FLAG-IKK-β expression plasmids. After 48 hours of the transfection, lysates from the whole cells were analyzed by immunoprecipitation and immunoblot and examined for the presence of p73α containing HA-ubiquitin.

The test system of experiment [2] is p73. As to the kind of experiment: Luciferase reporter assay, p73-dependent transcriptional activation in H1299 cells. Particulars: H1299, coexpression with HA-p73α or HA-p73β (FIG. 20, 21, 23). Format: cell-based, human. On the procedure:
H1299 cells deficient in p53 were seeded at a density of 5×10^4 cells/well onto a 12-well tissue culture dish and transiently transfected with 100 ng of luciferase reporter construct (which carried a p53/p73-responsive element derived from a p21^WAF1, Bax, or MDM2 promoter), 10 ng of pRL-TK Renilla luciferase cDNA, and 25 ng of given expression plasmid (p53, HA-p73α, or HA-p73β) together with or without varying amounts of IKK-α or FLAG-IKK-β expression plasmids. The total amount of DNA per transfection was kept constant (510 ng) with a pcDNA3 empty plasmid. After 48 hours from the transfection, the cells were washed twice with ice-cold PBS and suspended in passive lysis buffer (Promega). Both firefly and Renilla luciferase activities were assayed by use of dual-luciferase reporter assay system (Promega) according to the instruction. […] intensity was measured with TD-20 luminometer (Turner Design). The firefly luciferase signal was normalized based on the Renilla luciferase signal. Results obtained from at least 3 transfections were indicated by mean value±standard deviation.
To explore the functional implication of interaction between IKK-α and p73, the effect of IKK-α on p73-mediated transcriptional activation was first examined. H1299 cells deficient in p53 were transfected with a HA-p73α or HA-p73β expression plasmid and a luciferase reporter construct under the control of a p21^WAF1, Bax, or MDM2 promoter together with or without varying amounts of IKK-α expression plasmids. […] By contrast, increase in p53-responsive reporter gene activity was not induced by IKK-α (FIG. 22). To examine the specificity of p73-dependent transcriptional activation mediated by IKK-α, whether IKK-β enhanced p73 transcriptional activity to p53/p73-responsive promoters was confirmed.

The test system of another experiment is H1299 cells. As to the kind of experiment: Apoptosis assay (trypan blue / Red-Gal double staining), p73α-dependent. The class given is cell-based, human. Particulars: H1299, coexpression with HA-p73α, 48 hours (FIG. 25-27). On the procedure:
To detect apoptosis via p73α and IKK overexpression, H1299 cells were seeded at a density of 1.5×10^4 cells/well onto a 6-well tissue culture dish. Next day, the cells were transiently transfected with 50 ng of β-galactosidase expression plasmid and 50 ng of HA-p73α expression plasmid in the presence or absence of varying amounts of IKK-α or IKK-β expression vectors (100, 200, or 400 ng). After 48 hours of the transfection, the cells were washed with ice-cold PBS and stained at room temperature for 10 minutes with 0.4% trypan blue (PBS solution). Then, the cells were washed twice with PBS, then fixed for 10 minutes in PBS containing 2.5% glutaraldehyde, 1 mM magnesium chloride, and 2 mM EGTA, and stained for 2 hours with Red-Gal (Research Organics) according to the method described in Bayon, Y. et al., Mol. Cell. Biol. 23: 1061-1074 (2003). Red-Gal was used as a marker for visualizing the transfected cells to evaluate the degree of apoptosis occurring in the transfectants. […] Results were indicated by an average of three independent transfections (each performed three times or more).
Potential effect(s) of IKK-α on p73-dependent biological functions such as the regulation of apoptosis was examined. […] After 48 hours of the transfection, the cells were subjected to double staining with trypan blue (nonviable cells) and Red-Gal (transfected cells), and the number of purple cells was scored.

Turning to “FLAG-IKK-β: IκB kinase catalytic subunit IKK-β (IKK-2), FLAG-tagged, expressed from plasmid as comparison”, the “amount of HA-p73α” value with p73 [1] was “no detectable effect on the stabilization of both p73 and p53”. Also, in the experiment with p53, the “stabilization of p53” value is “no detectable effect on the stabilization of both p73 and p53”. Further, the “amount of ubiquitinated p73α” value in the experiment with HA-p73α is listed as “inhibited the ubiquitination of p73α to a somewhat lesser degree”. For the same substance, the “p73-dependent transcriptional activation of p21WAF1, Bax, MDM2 promoter reporters” value in the experiment with p73 [2] was “no remarkable change in p73-dependent transcriptional activation”. In addition, the “number of cells undergoing p73α-dependent apoptosis” value in the experiment with H1299 cells is recorded as “no remarkable effect on p73α-dependent apoptosis”.

These data come from patent US7618787B2, “Method of screening compound capable of accelerating or inhibiting apoptosis, apoptosis accelarator and apoptosis inhibitor” (Hisamitsu Pharmaceutical Co., Inc., priority 2004, dated 2009).
